Experimental data published in PubChem BioAssay AID1159563 (GlaxoSmithKline (GSK), 2015).
Active and inactive are the calls of the source. No rule for the calls is given here.

Tested on: HepG2 cytotoxicity
Experiment: human hepatoma cell viability loss – cytotoxicity control (AID 1159563)

Row | Compound | IC50
1 | COc1ccccc1-n1c(SCC(=O)Nc2ccc3c(c2)OCO3)nc2c(c1=O)SCC2 | > 100 µM (inactive)
2 | Cc1ccccc1NS(=O)(=O)c1ccc2[nH]cc(C(=O)NC3CCCC(C)C3C)c(=O)c2c1 (centres undefined) | 40 µM
3 | CCN(CC)S(=O)(=O)c1ccc(Cn2nc(C(=O)Nc3ccncn3)c3ccccc32)cc1 | > 100 µM (inactive)
4 | N#Cc1ccc(S(=O)(=O)N2CCC3(CCN(c4ccccc4)C3=O)CC2)cc1 | > 100 µM (inactive)
5 | CCC(=O)N1N=C(c2ccc3c(c2)CCCC3)Sc2c1ncn2C(=O)CC | > 100 µM (inactive)
6 | O=C1c2cnc(N3CCCC3)nc2CN1c1ccc2c(c1)OCO2 | > 100 µM (inactive)
7 | N#Cc1cccc(CNc2ccc(-c3cnn(CC4CC4)c(=O)c3C#N)cc2)c1 | > 100 µM (inactive)
8 | Cc1cc(C)nc(N2CCC(N(Cc3cccnc3)C(=O)c3cccc(C#N)c3)CC2)n1 | > 100 µM (inactive)
9 | Cc1cc(NC(=O)C2CC2)ccc1OC1CCN(Cc2ccco2)CC1 | 50 µM
10 | CCC(=O)Nc1ccc(-c2nc3ccc(Cl)cc3[nH]2)cc1 | > 100 µM (inactive)
11 | O=C(Cn1cnc2cc([N+](=O)[O-])ccc2c1=O)NCCc1ccc(Cl)cc1Cl | > 100 µM (inactive)
12 | CNc1c(C(N)=O)c(-c2ccc3scnc3c2)nn1CC(F)(F)F | > 100 µM (inactive)
13 | O=C(Nc1ccc(C(F)(F)F)cc1)NC1(C(=O)NCc2ccco2)CCCCC1 | > 100 µM (inactive)
14 | O=c1cc(NCCCNCc2c[nH]c3ccc(Br)cc23)[nH]c2ccccc12 | > 100 µM (inactive)
15 | Cc1nc2c(-c3cccs3)c(C)nn2c(NCCO)c1C | > 100 µM (inactive)
16 | CCCN(Cc1ccc(OC)c(OC)c1)Cc1cc(=O)c2c(C)cc(C)cc2[nH]1 | 63 µM
17 | CCN(C)Cc1ccc(N2CCC(NS(=O)(=O)c3ccc4c(c3)CCO4)CC2)nc1 | > 100 µM (inactive)
18 | Cc1nnnn1-c1cccc(C(=O)N2CCC[C@@]3(C)c4ncncc4CCC23)c1 (some centres undefined) | > 100 µM (inactive)
19 | Cc1nn(C)c(Cl)c1CN(Cc1cccnc1)Cc1ccsc1 | > 100 µM (inactive)
20 | C[C@@H](Oc1cc(-n2cnc3cc(N)ccc32)sc1C(N)=O)c1ccccc1Cl | 20 µM
21 | N#Cc1c(Oc2cccc(Cl)c2)cccc1[N+](=O)[O-] | 25 µM
22 | Cc1cc(Nc2ccc(C#N)c(Cl)c2C)n[nH]1 | > 100 µM (inactive)
23 | CC(C)CC(=O)Nc1cc(C2CC2)nn1-c1nc2c(c(=O)[nH]1)CCCC2 | > 100 µM (inactive)

Row | Compound | IC50
24 | O=C(NCC1CCCCN1C(=O)c1cccc2ccccc12)c1ccccc1 (centres undefined) | > 100 µM (inactive)
25 | O=C(Nc1nc2ccccc2[nH]1)c1c(O)c2cccc3c2n(c1=O)CC3 | 10 µM
26 | O=C(c1cccc(Nc2ncc(-c3ccc4c(c3)OCO4)cn2)c1)N1CCOCC1 | > 130 µM (inactive)
27 | COc1ccc(S(=O)(=O)NC(C)C)cc1Nc1ncc(-c2cccc(F)c2)cn1 | > 100 µM (inactive)
28 | Cc1cc2ncn(-c3ccc([N+](=O)[O-])cc3C#N)c2cc1C | > 100 µM (inactive)
29 | CC(C)Oc1cccc(N2CCC(C(=O)N3CCCN(C(C)C)CC3)CC2)c1 | > 100 µM (inactive)
30 | O=C(N[C@H](CO)c1ccccc1)c1ccc(-c2c[nH]c3nccc(C(F)(F)F)c23)s1 | 63 µM
31 | COc1ccc([N+](=O)[O-])cc1NC(=O)c1cc(Cl)ccc1O | 10 µM
32 | c1cc(-c2ncc(-c3ccn[nH]3)s2)ccn1 | > 100 µM (inactive)
33 | O=C(c1ccc(Cl)cc1)c1ccc(OC(=O)N2CCOCC2)cc1 | > 100 µM (inactive)
34 | Cc1ccc(S(=O)(=O)Nc2ccc(CN3CCN(C(=O)c4cccc(C#N)c4)CC3)cc2)cc1 | > 100 µM (inactive)
35 | CC(C)(C)C(O)(CCc1ccc(Cl)cc1)Cn1cncn1 (centres undefined) | > 100 µM (inactive)
36 | CN1CCCN(C(=O)c2ccc(N3CCCC3)cc2Cl)CC1 | > 100 µM (inactive)
37 | COc1ccc(Nc2nc(NC3CCC(O)CC3)ncc2Br)c(C(N)=O)c1 (centres undefined) | > 100 µM (inactive)
38 | Nc1cc(-c2ccc3ncnc(N4CCOCC4)c3c2)cnc1N | > 100 µM (inactive)
39 | CCN(Cc1cccs1)C(=O)CSc1nnc(-c2ccc3c(c2)OCO3)o1 | > 100 µM (inactive)
40 | O=C(Nc1nc(-c2ccccn2)cs1)C1CCc2ccccc2C1 (centres undefined) | 40 µM
41 | COc1ccc2nccc([C@H](O)CN3CC[C@H](NC(=O)c4ccc(Br)cc4)[C@@H](O)C3)c2n1 | > 100 µM (inactive)
42 | O=C(Nc1cccc(S(=O)(=O)Nc2ccc(Br)cc2)c1)c1ccc([N+](=O)[O-])s1 | 16 µM
43 | COc1cccc(C(=O)[C@H]2C[C@@H]2CN(Cc2cccnc2)Cc2cccnc2)c1 | > 100 µM (inactive)
44 | CCCCc1cc(Nc2cc(C3CCC3)[nH]n2)nc(N2CCC2C(N)=O)n1 (centres undefined) | > 100 µM (inactive)
45 | Cc1[nH]nc(Nc2ccnc3[nH]ccc23)c1C | > 100 µM (inactive)
46 | c1cncc(CN(Cc2ccco2)Cc2cn[nH]c2-c2cccs2)c1 | > 100 µM (inactive)

Row | Compound | IC50
47 | O=c1[nH]c(NCCCNCc2cc(Br)cc(Br)c2)nc2ccsc12 | 50 µM
48 | O=c1cc(NCCCNC2CCOc3c(I)cc(Cl)cc32)[nH]c2ccccc12 (centres undefined) | 63 µM
49 | O=C(NCc1nnc2n1CCCCC2)c1ccc(-c2ccc(F)cc2)o1 | > 100 µM (inactive)
50 | Cc1ccc(NC(C)C(=O)Nc2ccc(C#N)cc2)cc1S(=O)(=O)N1CCCCC1 (centres undefined) | 79 µM
51 | Nc1nc(-c2ccccn2)nc(-n2nc(-c3cccc(C(F)(F)F)c3)cc2N)n1 | 20 µM
52 | O=C(Cn1cnc([N+](=O)[O-])n1)Nc1ccc(Cl)cc1C(=O)c1ccccc1 | > 100 µM (inactive)
53 | CC(C)c1cc(C(=O)N2CCCC(c3cc4ncccc4[nH]3)C2)on1 (centres undefined) | > 100 µM (inactive)
54 | Oc1c(-c2n[nH]c(Cc3ccc(Cl)cc3)n2)ncc2cccnc12 | 40 µM
55 | COc1ccc(CN2C(=O)C(O)(CC(=O)c3ccncc3)c3cc(Br)ccc32)cc1OC (centres undefined) | 40 µM
56 | COc1ncc(-c2ccc3ncnc(N4CCOCC4)c3c2)cc1NS(C)(=O)=O | > 100 µM (inactive)
57 | Cc1nc(C(=O)Nc2ccc3c(c2)OCO3)nn1-c1ccc(Cl)cc1 | > 100 µM (inactive)
58 | CC1CN(S(=O)(=O)c2ccc(NC(=O)c3cc(C4CC4)nc4c3cnn4C(C)C)cc2)CC(C)O1 (centres undefined) | > 100 µM (inactive)
59 | O=C(c1ccc(O)c(Cl)c1)N1CCN(c2cnccn2)CC1 | > 100 µM (inactive)
60 | Cc1ccc2sc(NC(=O)Cn3cnc([N+](=O)[O-])n3)nc2c1 | > 100 µM (inactive)
61 | COC(=O)c1ccc(-c2cnc3ccc(NCc4ccccn4)nn23)cc1 | 100 µM
62 | Cc1cc(Br)cc(C(=O)c2c(C(C)C)c(=O)[nH]c(=O)n2Cc2ccnc(N)c2)c1 | > 100 µM (inactive)
63 | Cn1ccnc1CN1CCc2[nH]cnc2C1c1ccccc1OCc1ccccc1 (centres undefined) | > 100 µM (inactive)
64 | O=C(NCCNc1noc(-c2ccc([N+](=O)[O-])cc2)n1)c1ccc(Cl)cc1 | > 100 µM (inactive)
65 | O=C(NCCc1csc(-c2ccc(F)cc2)n1)c1cccs1 | > 100 µM (inactive)
66 | O=c1[nH]cnc2c([C@@H]3O[C@H](CO)[C@@H](O)[C@H]3O)[nH]nc12 | > 100 µM (inactive)
67 | N#Cc1cccc(CN2CCC(N(Cc3cccnc3)C(=O)c3cc(F)c(F)cc3F)CC2)c1 | > 100 µM (inactive)
68 | c1ccc(-c2nc(NC3CCCC3)c3ccccc3n2)nc1 | 16 µM
69 | CN(Cc1cccnc1)Cc1ccc(N2CCN(C(=O)C3(c4ccc(Cl)cc4)CC3)CC2)nc1 | > 100 µM (inactive)
